Experiments:
[1] = system: SKH-1 mice (hairless mice); experiment: UV light-induced skin carcinogenesis (papillomas/tumours) in hairless mice, topical treatment for 28 weeks; format: in vivo; details: for animals that had developed at least one tumour at the end of the study: week 28
Experimental: In a first laboratory experiment performed, female SKH-1 mice (hairless mice) were purchased from the Animal Resource Service of Murdoch University, Western Australia, at approximately 3-4 weeks of age. Upon arrival at the Applicants' laboratory, the mice were housed in climate-controlled quarters (22±1° C. at 50% humidity) with a 12-hour light/dark cycle in yellow fluorescent lighting. All animals were allowed free access to rodent diet and water. The experimental protocol and all procedures were approved by CSIRO Health Sciences and Nutrition Animal Experimental Ethics Committee and followed the Australian Code of Practice for the care and use of animals for scientific purposes. The animals were observed daily during the period of UV light exposure. Individual body weights were determined twice weekly throughout the whole study period of 28 weeks.
Racemic flurbiprofen (“RS-FB”), used as the chemopreventive NSAID in this experiment, was purchased from Sigma Chemical Company (Sydney, Australia). Several topical formulation solutions were prepared by dissolving RS-FB in 70% ethanol (in water) as the carrier medium to achieve final RS-FB concentrations of 0.5, 1.0, 2.0 and 3.0% w/v. The drug solutions were prepared every two weeks throughout the whole study period.
The SKH-1 mice were divided into 5 treatment groups of 30 animals each. […] Within each treatment group, the animals were further divided into 2 subgroups of 15 animals. One subgroup was treated with vehicle or RS-FB solution one hour before the UV light exposure. The other subgroup was exposed to the UV light one hour before the application of vehicle or the allocated RS-FB solution. The solutions were applied topically to the dorsal area of the animals, in a volume of approximately 50-125 μl per application, using cotton tips.
Simulated solar irradiation was provided by an array of 6 UV-A tubes (Sylvania F40BL) symmetrically housed around a single UV-B tube (Philips FL 40SE) in a custom-built unit. As the skin of the animals progressively thickened, the time of exposure to reach 1 minimal erythematous dose (MED) was increased from 7 minutes per day to 10 minutes per day, 5 days a week. The integrated UV-B irradiance (280-320 nm) was 2.4×10^−4 W/cm^2, and the UV-A (320-400 nm) was 1.8×10^−3 W/cm^2 as measured with a model IL 1700 spectro-radiometer (International Light, Newburyport, Mass.). During treatment, the mice in each group were placed in separate open plastic cages in the UV housing unit. […] Treatment in this manner was continued for 28 weeks.
The development of skin cancer was assessed as the visible appearance of papillomas, which subsequently developed, in a subset of cases, to tumours. Weekly papilloma and tumour counts were performed after the appearance of the first papilloma and were continued until the termination of the experiment (week 28). The diameters of papillomas and tumours were measured and their locations noted. Data was recorded representing the number of (a) papillomas, (b) tumours and (c) papillomas plus tumours per animal. While the natural progression is from papilloma to tumour, it will be appreciated by those skilled in the art that, in some cases, the distinction between a papilloma and a tumour could not be made unequivocally. The data was analysed taking this into account. The appearance of the skin lesions was expressed progressively as incidence (percentage of mice bearing at least one papilloma/tumour) and yield (average number of papillomas/tumours per mouse) as well as burden (area of skin affected at the end of study).
Analysis of variance (ANOVA) was used to determine whether RS-FB administration caused a statistically significant change in the appearance and yield of papilloma/tumours in comparison with the control (vehicle group). Comparisons between groups was performed using the Scheffe method. Significance was concluded when P<0.05.

[2] = system: non-pigmented human skin cancer cell line MM96L; experiment: in vitro proliferation (MTS colorimetric assay) and apoptosis of human skin cancer cell line; format: cell-based; details: for effect on proliferation rate (FIG. 4): 24 hours exposure, MTS assay; for apoptosis: DNA fragmentation, acridine orange staining, flow cytometry
Description: FIG. 4 is a chart that graphically presents laboratory experiment test data regarding the relative effect of racemic flurbiprofen to its individual enantiomers, R-flurbiprofen flurbiprofen (“R-FB”) and S-flurbipofen (“S-FB”), on the in vitro proliferation of a cancerous human skin cell line. For the underlying experiment, the non-pigmented human skin cancer cell line M[…] was studied in vitro utilizing the MTS colorimetric assay to assess cell proliferation. DNA fragmentation assays, acridine orange staining and flow cytometry were also utilized to assess apoptosis and cell cycle effects. […] An important finding was that there was no difference between the enantiomers of flurbiprofen in their anti-proliferative potency, despite the fact that only the S-isomer was capable of reducing COX activity.

[3] = system: cyclooxygenase (COX); details: cited from earlier work
[4] = system: human skin cells; experiment: anti-proliferative effects of other NSAIDs on human skin cells; format: cell-based; details: range depends on duration of exposure, read-out: IC50 (concentration required to inhibit cell proliferation by 50%)
Description: FIG. 4 is a chart that graphically presents laboratory experiment test data regarding the relative effect of racemic flurbiprofen to its individual enantiomers, R-flurbiprofen flurbiprofen (“R-FB”) and S-flurbipofen (“S-FB”), on the in vitro proliferation of a cancerous human skin cell line. For the underlying experiment, the non-pigmented human skin cancer cell line MM96L was studied in vitro utilizing the MTS colorimetric assay to assess cell proliferation. DNA fragmentation assays, acridine orange staining and flow cytometry were also utilized to assess apoptosis and cell cycle effects. […] An important finding was that there was no difference between the enantiomers of flurbiprofen in their anti-proliferative potency, despite the fact that only the S-isomer was capable of reducing COX activity.
Further experiments similar to that discussed above with respect to FIG. 4 were conducted to assess the anti-proliferative effects of other NSAIDs on human skin cells. […] These values are similar to the IC50 vales encountered for flurbiprofen.

CC(C(=O)O)c1ccc(-c2ccccc2)c(F)c1 (racemic) [racemic flurbiprofen, flurbiprofen]
DP50 (time for 50% of mice within the group to develop at least one papilloma) ([1]; 0.5% w/v topical in 70% ethanol, UV 5 days a week): 17 weeks | animals that had developed at least one tumour at the end of the study ([1]; 0.5% w/v topical): 45% | skin appearance at completion of week 28 (FIG. 3c, 3d) vs vehicle animal ([1]; 1% and 2% treatment groups, representative animals): reduction in tumours and ulcers | DP50 (time for 50% of mice within the group to develop at least one papilloma) ([1]; 1% w/v topical in 70% ethanol, UV 5 days a week): 17 weeks | animals that had developed at least one tumour at the end of the study ([1]; 1.0% w/v topical): 25% | DP50 (time for 50% of mice within the group to develop at least one papilloma) ([1]; 2% w/v topical in 70% ethanol, UV 5 days a week): 17.5 weeks | animals that had developed at least one tumour at the end of the study ([1]; 2.0% w/v topical): 25% | adverse effects in the animals ([1]; 3% w/v topical, initial treatment (until week 10)): adverse effects (such as lethargy, dehydration, and diarrhoea) | DP50 (time for 50% of mice within the group to develop at least one papilloma) ([1]; 3-2% w/v topical (3%, then 2% from week 10)): 18.5 weeks | animals that had developed at least one tumour at the end of the study ([1]; 3-2% w/v topical): 10% | adverse effects / pathology in the animals ([1]; all concentrations up to and including 2% topical, 28 weeks): no signs of adverse effects | papilloma/tumour yield (average number per animal) vs control over time (FIG. 1) ([1]; all treatment groups 0.5-3-2% w/v, ANOVA/Scheffe): statistically significant from week 13 | reduction in the number of animals that developed skin tumours compared with control group ([1]; highest concentration (3-2% w/v) vs vehicle control): greater than 80% | protection against photo-carcinogenesis, application one hour before vs one hour after UV light ([1]; papilloma/tumour incidence compared between the two subgroups): superior protection | effect on proliferation rate (FIG. 4) [2]: inhibit the proliferation rate | apoptosis [2]: induce apoptosis

C[C@@H](C(=O)O)c1ccc(-c2ccccc2)c(F)c1 [R-FB, R-flurbiprofen]
COX inhibitory activity [3]: low COX inhibition | difference between the enantiomers in anti-proliferative potency [2]: no difference | effect on proliferation rate (FIG. 4) [2]: inhibit the proliferation rate | apoptosis [2]: induce apoptosis

CC(C)Cc1ccc([C@@H](C)C(=O)O)cc1 [R-ibuprofen]
IC50 [4]: 1.49 mM

C[C@H](C(=O)O)c1ccc(-c2ccccc2)c(F)c1 [S-FB, S-flurbiprofen]
COX inhibitory activity [3]: can inhibit cyclooxygenase | difference between the enantiomers in anti-proliferative potency [2]: no difference | effect on proliferation rate (FIG. 4) [2]: inhibit the proliferation rate | apoptosis [2]: induce apoptosis

CC(C)Cc1ccc([C@H](C)C(=O)O)cc1 [S-ibuprofen]
IC50 [4]: 1.5 mM

CC(=O)Oc1ccccc1C(=O)O [aspirin]
IC50 [4]: 0.97 to 5.53 mM

CC1=C(CC(=O)O)c2cc(F)ccc2/C1=C\c1ccc([S+](C)[O-])cc1 (stereo not shown) [sulindac]
IC50 [4]: 1.03 to 2.16 mM

Source: patent US20030143165A1, “NSAID-containing topical formulations that demonstrate chemopreventive activity” (priority 2002, published 2003)
